41 compounds from paper PMC5706701, “Development of a homogenous high-throughput assay for inositol hexakisphosphate kinase 1 activity” (PLoS ONE, 2017) can be followed below.

Structures can show the parent of a compound that is named as a salt. Where two headings read alike, the source gives them in different places.

The test addresses T1, Human IP6K1 (Homo sapiens, UniProt Q92551).
T1 construct: GST (N, cleaved yes); made in house; host or cells: C43 E. coli, pGEX-6P-2
Put plainly: IP6K1 high-throughput screen of the Sigma LOPAC (ADP-Glo Max, single point).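 Further: final compound concentration 10µM in 5% DMSO.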 It is filed as biochemical. (ADP-Glo turns the ADP formed in a reaction into a luminescent signal.)

Setting [1] is: Sigma LOPAC single-point screen, ADP-Glo Max raw signal per well.
[2] abbreviates: Sigma LOPAC single-point screen, Z-score from plate average and StDev.
Setting [3] is: LOPAC single-point screen, ADP-Glo Max luminescence raw signal per well.
Setting [4] is: LOPAC single-point screen, Z-score relative to plate average and StDev.
The mark [5] stands for this setting: LOPAC single-point screen, ADP-Glo Max raw signal per well.
Setting [6] is: LOPAC single-point screen, Z-score against plate average and StDev.
Setting [7] is: LOPAC single-point screen, Z-score from raw signal with plate average and StDev.
The mark [8] stands for this setting: LOPAC single-point screen, Z-score from plate average and StDev.

T1 sequence (Q92551 whole entry): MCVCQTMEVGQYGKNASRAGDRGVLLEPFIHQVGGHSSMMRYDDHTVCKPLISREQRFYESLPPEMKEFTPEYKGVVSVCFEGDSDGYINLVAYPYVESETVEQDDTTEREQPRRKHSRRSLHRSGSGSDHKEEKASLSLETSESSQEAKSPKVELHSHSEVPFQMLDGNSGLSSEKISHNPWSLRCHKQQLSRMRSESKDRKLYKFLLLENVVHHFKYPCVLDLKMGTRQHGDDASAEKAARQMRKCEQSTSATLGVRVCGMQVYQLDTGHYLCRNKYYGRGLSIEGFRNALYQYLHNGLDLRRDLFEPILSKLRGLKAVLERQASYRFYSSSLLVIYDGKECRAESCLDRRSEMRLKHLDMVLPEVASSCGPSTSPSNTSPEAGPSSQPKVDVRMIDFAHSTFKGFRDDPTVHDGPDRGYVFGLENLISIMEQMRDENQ

Consider `Cl.NC1(C(=O)O)CC1`, for which, under setting [1], the “Raw Signal” value is 65481. Under setting [2], this compound displayed a Z-score of 1.333.
For the compound `CC1=C(C)C(=O)C(CCCCC#CCCCC#CCO)=C(C)C1=O` [AA-861], under setting [3], the “Raw Signal” value worked out at 50345. Besides, under setting [4], the Z-score is on record as -1.333.
As to `CCCn1c(=O)c2[nH]c(-c3ccc(OCC(=O)NCCN)cc3)nc2n(CCC)c1=O` [Xanthine amine congener], the “Raw Signal” value under setting [1] is on record as 61437. For the same compound, the Z-score under setting [2] was 1.052.
On to `CN1CCc2ccccc2Cc2[nH]c3ccccc3c2CC1` [LE 300], for which the “Raw Signal” value is 53844 and the Z-score is recorded as -0.09233.
Consider `COc1cc(NS(C)(=O)=O)ccc1Nc1c2ccccc2nc2ccccc12` [Amsacrine hydrochloride], for which the “Raw Signal” value under setting [5] was found to be 58568. Also, the Z-score under setting [6] is on record as 0.1153.
The matching figures for `CCN1CCC[C@H]1CNC(=O)c1cc(S(N)(=O)=O)ccc1OC` [(-)-Sulpiride]: 56775 and 0.1459.
With `O=C(O)c1cc(O)c2ccc(Cl)cc2n1` [7-Chlorokynurenic acid], the “Raw Signal” value under setting [5] was determined as 53866. The Z-score under setting [7] was -0.2642.
Take `COc1cccc(OC)c1OCCNCC1CSc2ccccc2O1` (stereo not shown) [Benoxathian hydrochloride]: the “Raw Signal” value under setting [5] was determined as 57648. Further, under setting [6], the Z-score is -0.04669.
The matching figures for `CC(C)CN(C)c1nc(N)c(C(=O)N=C(N)N)nc1Cl` [5-(N-Methyl-N-isobutyl)amiloride]: 57481 and -0.0761.
The matching figures for `Cn1c(=O)c2c(nc(C=Cc3cccc(Cl)c3)n2C)n(C)c1=O` [8-(3-Chlorostyryl)caffeine]: 56359 and 0.2421.
As for `CN(C(=O)Cc1ccc(Cl)c(Cl)c1)C(CN1CCCC1)c1cccc(OCC(=O)O)c1.Cl` (stereo not shown) [ICI 204,448 hydrochloride], the “Raw Signal” value under setting [5] stood at 53600. Besides, the Z-score under setting [7] was -0.1333.
Turning to `CNCCCC12CCC(c3ccccc31)c1ccccc12` [Maprotiline hydrochloride], under setting [5], the “Raw Signal” value was 54786. The same compound had a Z-score under setting [6] of 0.06595.
For the compound `Cc1cccc(C#Cc2ccccc2)n1.Cl`, the “Raw Signal” value under setting [3] is 51049. Also, under setting [4], the Z-score is recorded as -0.562.
Turning to `N#C/C(=C\c1ccc(O)c(O)c1)C(=O)NCc1ccccc1` [Tyrphostin AG 490], the “Raw Signal” value under setting [5] was 54184. The Z-score under setting [7] is reported as -0.3574.
With `Cc1nc2sccn2c(=O)c1CCN1CCC(=C(c2ccc(F)cc2)c2ccc(F)cc2)CC1` [Ritanserin], the “Raw Signal” value under setting [5] is on record as 56847. Also, under setting [6], the Z-score was found to be 0.1599.
On the same counts, the results for `Cn1c(=O)c2[nH]c(-c3ccccc3)nc2n(C)c1=O` [1,3-Dimethyl-8-phenylxanthine] are 54517 and 0.02075.
Turning to `C=CCN1C[C@H](C)N([C@H](c2ccc(C(=O)N(CC)CC)cc2)c2cccc(OC)c2)C[C@H]1C` [SNC80], the “Raw Signal” value under setting [5] is 54916. In addition, the Z-score under setting [7] is reported as -0.2152.
Consider `COc1ccc2[nH]cc(CCN(C)C)c2c1.O=C(O)C(=O)O` [5-Methoxy DMT oxalate], for which the “Raw Signal” value under setting [1] is on record as 59658. The compound also came in with a Z-score under setting [2] of 0.8846.
As for `CCCN(CCC)C(=O)C(CCC(=O)O)NC(=O)c1ccccc1` (stereo not shown) [Proglumide], the “Raw Signal” value under setting [5] came out at 53192. This compound showed a Z-score under setting [7] of -0.2019.
On the same counts, the results for `CCCCCCCCCCCCCCCC(=O)OC(CC(=O)O)C[N+](C)(C)C.[Cl-]` (racemic) [Palmitoyl-DL-Carnitine chloride] are 51772 and -0.4405.
On to `CNc1ncnc2c1ncn2[C@H]1C[C@H](OP(=O)(O)O)[C@@H](COP(=O)(O)O)O1` [MRS 2179], for which, under setting [3], the “Raw Signal” value is on record as 51414. Also, the Z-score under setting [4] was -0.5006.
As for `NC(N)=NOCC[C@H](N)C(=O)O.O=S(=O)(O)O` [L-Canavanine sulfate], the “Raw Signal” value under setting [1] is on record as 61689. The Z-score under setting [2] is on record as 0.665.
Consider `C=C/C(C)=C/[C@@]1(C)SC(=O)C(C)=C1O` [Thiolactomycin], for which the “Raw Signal” value under setting [5] is reported as 51778. Besides, the Z-score under setting [7] is on record as -0.4395.
Turning to `CCCCCCN(CCCCCC)C(=O)Cc1c(-c2ccc(F)cc2)[nH]c2ccccc12`, the “Raw Signal” value under setting [5] was 56591. Under setting [6], this compound showed a Z-score of 0.2892.
Take `Cc1cnc(C(=O)NCCc2ccc(S(=O)(=O)NC(=O)NC3CCCCC3)cc2)cn1` [Glipizide]: under setting [1], the “Raw Signal” value was determined as 60018. Besides, the Z-score under setting [2] turned out to be 0.9852.
Regarding `NC(C(=O)O)C(O)C(=O)O` (racemic) [DL-threo-beta-hydroxyaspartic acid], the “Raw Signal” value under setting [3] is 64938. The compound also showed a Z-score under setting [8] of 1.984.
Take `CN[C@@H](C)[C@H](O)c1ccccc1.CN[C@@H](C)[C@H](O)c1ccccc1.O=S(=O)(O)O` [(-)-Ephedrine hemisulfate]: the “Raw Signal” value under setting [5] worked out at 54708. The compound further came in with a Z-score under setting [7] of -0.09323.
Turning to `Oc1cccc2c(O)nccc12` [1,5-Isoquinolinediol], under setting [5], the “Raw Signal” value stood at 54537. This compound also displayed a Z-score under setting [6] of 0.02411.
As to `CC1(C)NC(=O)N(c2ccc([N+](=O)[O-])c(C(F)(F)F)c2)C1=O` [Nilutamide], the “Raw Signal” value under setting [1] is on record as 62066. The Z-score under setting [2] was determined as 1.289.
Take `NC(=O)COc1c(F)cc(SCCNS(=O)(=O)c2ccccc2)cc1F`: the “Raw Signal” value under setting [5] is 52796. Under setting [7], this compound yielded a Z-score of -0.2684.
Consider `O=C1CCC(c2ccc(-n3ccnc3)cc2)=NN1` [Imazodan], for which the “Raw Signal” value under setting [1] stood at 60009. Under setting [2], this compound showed a Z-score of 0.9834.
Consider `Cl.NCCCCC(=O)O` [5-Aminovaleric acid hydrochloride], for which the “Raw Signal” value under setting [5] was 58378. Besides, under setting [6], the Z-score amounted to 0.08188.
As for `Br.CCCN(CCC)[C@@H]1CCc2ccc(O)cc2C1` [R-(+)-7-Hydroxy-DPAT hydrobromide], under setting [3], the “Raw Signal” value is 62909. Moreover, the Z-score under setting [8] was determined as 1.572.
`Nc1ccc(S(=O)(=O)Nc2ccnn2-c2ccccc2)cc1` [Sulfaphenazole]: the “Raw Signal” value under setting [5] is 54328. The same compound yielded a Z-score under setting [7] of -0.3295.
Consider `N[C@@H](Cc1ccc(O)c(O)c1)C(=O)O` [L-3,4-Dihydroxyphenylalanine], for which, under setting [3], the “Raw Signal” value is 43363. Besides, the Z-score under setting [4] is -2.397.
The matching figures for `NCCCNCCSP(=O)(O)O` [Amifostine]: 55102 and -0.4951.
In the case of `Br.CN1CCc2cc(O)c(O)cc2C(c2ccccc2)C1` (stereo not shown) [SKF 75670 hydrobromide], under setting [5], the “Raw Signal” value amounted to 56113. The same compound came in with a Z-score under setting [6] of 0.01733.
Turning to `CC(C)Oc1cccnc1N(C)C1CCN(Cc2ccccc2)CC1.O=C(O)/C=C\C(=O)O` [U-101958 maleate], under setting [3], the “Raw Signal” value amounted to 65094. Besides, under setting [8], the Z-score is given as 1.762.
As to `C[n+]1cc2c3c(ccc2c2ccc4cc5c(cc4c21)OCO5)OCO3` [Sanguinarine chloride], under setting [3], the “Raw Signal” value came to 52602. The Z-score under setting [4] was -0.6648.
Regarding `CNCC(O)c1ccc(O)c(O)c1.Cl` (racemic) [(±)-Epinephrine hydrochloride], the “Raw Signal” value turned out to be 49297 and the Z-score is on record as -1.192.
Consider `CC(=O)O.NC(=NCCC[C@H](N)C(=O)O)NO` [NG-Hydroxy-L-arginine acetate], for which, under setting [5], the “Raw Signal” value is listed as 53960. Under setting [7], this compound gave a Z-score of -0.2451.
